According to PMC6246682, “Structural Basis of Tau Interaction With BIN1 and Regulation by Tau Phosphorylation” (Frontiers in Molecular Neuroscience, 2018):

Tests used:
BIN1 SH3 domain = target: T1, BIN1 SH3 domain (Homo sapiens, UniProt O00499); test: NMR chemical shift perturbation titration, dissociation constant determination; assay type: binding; conditions: peptide/BIN1 SH3 molar ratios 0, 0.5, 1, 2, 4, 8 and 12; 1H-15N HSQC
T1 construct: The BIN1 isoform 1 and BIN1 SH3 domain were expressed and purified as previously described; made in house
T1 sequence (O00499 520-593 limits assumed): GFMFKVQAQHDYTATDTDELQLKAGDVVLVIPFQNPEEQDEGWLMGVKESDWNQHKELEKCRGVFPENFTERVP
Method: The weighted average chemical shift differences were calculated as described by [Garrett et al. (1997)] - i.e., (ΔH^2 + (ΔN×0.2)^2)^1/2, with ΔH and ΔN the chemical shift changes for ^1H and ^15N, respectively. Dissociation constants were obtained by fitting the chemical shift perturbation data to the following equation Δδobs = Δδmax(a + b + Kd−((a + b + Kd)^2−4ab)^1/2)/2a where Δδobs is the weighted average of the chemical shifts in the free and bound states and Δδmax is the maximal signal change upon saturation. Kd is the dissociation constant, a and b are the total peptide and BIN1 SH3 concentrations, respectively. Kd were averaged based on chemical shift perturbations of 7 distinct resonances.
Labeled resonances correspond to the major chemical shift perturbations, color coded as in Figure 4A. Enlarged regions of the superimposed spectra show 3 resonances involved in the interaction.
Det ail o f o ver la id 1H-15N HSQC spe ct ra o f BIN1 SH3 do ma in, in t he prese nce o f increa s ing a mo unt o f Tau(210-240) pept ide, mo lar rat io s pe pt ide/BIN1 SH3 0, 0.5, 1, 2, 4, 8 and 12 (co lo r sca le fro m purp le t o gray), o r o f p ho spho-Tau(210-240) pept ide, sa me mo lar rat ios (sa me co lo r sca le). A spect rum is reco rded fo r each t it rat io n po int . […]

BIN1 isoform 1 = test: 1H-15N HSQC competition with intramolecular BIN1 SH3/CLAP interaction; assay type: binding; conditions: 1H-15N HSQC of BIN1 isoform 1 (0.08 mM), 20°C, 900 MHz, molar ratio 1:8
Method: NMR experiments were recorded on Bruker 950-MHz, 900-MHz, or 600-MHz spectrometers all equipped with a triple-resonance cryogenic probe. NMR measurements were performed in 50 mM sodium phosphate buffer, pH 7.3, 30 mM NaCl, 3 mM DTT and 10% D2O (NMR buffer). BIN1 SH3 domain backbone assignment has been previously reported ([Malki et al., 2017]). […] For side-chain assignment, additional 3D^15N NOESY-HSQC, 3D^15N-edited TOCSY, 3D (H)CCH TOCSY, and 3D H(C)CH TOCSY experiments were recorded. A 3D ^13C-edited NOESY was further used for side-chain assignment validation. All assignment experiments were recorded at 5°C. Chemical shift values (Supplementary Table S1) were directly transferred at 20°C, because the differences of chemical shift values were small between 5 and 20°C. […] BIN1 isoform 1 ^1H-^15N HSQC spectra were recorded at 20°C at 900 MHz (0.08 mM sample) with 3096 points (direct) and 280 points (indirect), for spectral width of 14 ppm and 26 ppm, respectively, and 256 scans. A 3D F1 ^13C/^15N-filtered and F3 ^15N-edited NOESY-HSQC, with WATERGATE (WATER suppression by GrAdient-Tailored Excitation) scheme ([Piotto et al., 1992]), named noesyhsqcf3gpwgx13d, part of the Bruker pulse sequence library, was recorded at 20°C at 950 MHz for the detection of intermolecular NOEs to amide groups. […] Spectra were processed using TopSpin software (Bruker) and analyzed by CcpNmr Analysis ([Vranken et al., 2005]).
As NMR is sensitive to mobility, this equilibrium translated into detection of BIN1 SH3 domain signals only upon its release from the intramolecular interaction ([Malki et al., 2017]). […] Consequently, in the presence of the phosphorylated Tau peptide (210–240), BIN1 SH3 domain remained immobilized by the intramolecular interaction with BIN1 isoform1 CLAP domain, mainly adopting the closed conformation.
(A) ^1H-^15N HSQC spectrum of BIN1 isoform 1 (112 KDa, homodimer). […] (B) ^1H-^15N HSQC spectra of BIN1 isoform 1 in the presence of phospho-Tau (210–240), molar ratio 1:8. The signals corresponding to the isolated BIN1 SH3 domain were barely detected.

Substance: phosphorylated Tau (210–240): Tau (210–240) phosphorylated by CDK2/CycA3; T212, T231, S235 full, T217 half-phosphorylated
- saturation / affinity in titration (BIN1 SH3 domain): lo wer a ffin it y
- competition with intramolecular BIN1 SH3/CLAP interaction (BIN1 isoform 1): not able to displace the intramolecular interaction of BIN1 SH3 with BIN1 CLAP domain
- competition with intramolecular BIN1 SH3/CLAP interaction (BIN1 isoform 1; listed as Phospho-Tau (210–240)): cannot compete with the intramolecular interaction of BIN1 SH3 with the CLAP domain
- competition with intramolecular BIN1 SH3/CLAP interaction (BIN1 isoform 1; listed as Tau (210–240) phosphorylated at four different sites (T212, T217, T231, and S235)): unable to compete with the intramolecular interaction of BIN1 SH3 domain with its CLAP domain
- competition with intramolecular BIN1 SH3/CLAP interaction (BIN1 isoform 1; listed as Tau (210–240) phosphorylated at multiple sites): not able to compete with the intra-molecular interaction of BIN1 SH3 with the CLAP domain as efficiently as its unphosphorylated counterpart
